Experimental data: US8802597B2, “Herbicidal pyrimidines” (E I du Pont de Nemours and Company, priority 2003, dated 2014)

Key:
Assay in all cases: Test A pre/postemergence
Assay type in all cases: in vivo
[1] = tested on: redroot pigweed (Amaranthus retroflexus)
Outline: (§1)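 Seeds sown in loam–sand blend received a preemergence directed soil spray of test chemical in non-phytotoxic solvent with surfactant; same-formulation postemergence spray given concurrently to plants 2–10 cm tall at 1- to 2-leaf stage. Greenhouse ~ten days, then visual injury rating versus untreated controls, 0 (no effect) to 100 (complete control).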

[2] = tested on: giant foxtail (Setaria faberi)
Outline: as §1

[3] = tested on: velvetleaf (Abutilon theophrasti)
Outline: as §1

[4] = tested on: morningglory (Ipomoea spp.)
Outline: as §1

[5] = tested on: crabgrass (Digitaria sanguinalis)
Outline: as §1

[6] = tested on: barnyardgrass (Echinochloa crus-galli)
Outline: as §1

[7] = Postemergence, 125 g ai/ha, 0 to 100 scale (0 no effect, 100 complete control)
[8] = Postemergence, 500 g ai/ha, 0 to 100 scale (0 no effect, 100 complete control)
[9] = Preemergence, 125 g ai/ha, 0 to 100 scale where 0 is no effect and 100 is complete control, approximately ten days
[10] = Preemergence, 500 g ai/ha, 0 to 100 scale where 0 is no effect and 100 is complete control, approximately ten days

Row | SMILES | Plant response rating, Pigweed [1, 7] | Plant response rating, Pigweed [1, 8] | Plant response rating, Pigweed [1, 9] | Plant response rating, Pigweed [1, 10] | Plant response rating, Foxtail, Giant [2, 7] | Plant response rating, Foxtail, Giant [2, 8] | Plant response rating, Foxtail, Giant [2, 9] | Plant response rating, Foxtail, Giant [2, 10] | Plant response rating, Velvetleaf [3, 7] | Plant response rating, Velvetleaf [3, 8] | Plant response rating, Velvetleaf [3, 9] | Plant response rating, Velvetleaf [3, 10] | Plant response rating, Morningglory [4, 7] | Plant response rating, Morningglory [4, 8] | Plant response rating, Morningglory [4, 9] | Plant response rating, Morningglory [4, 10] | Plant response rating, Crabgrass [5, 7] | Plant response rating, Crabgrass [5, 8] | Plant response rating, Crabgrass [5, 9] | Plant response rating, Crabgrass [5, 10] | other results
1 | CCOC(OCC)c1nc(-c2ccc(I)cc2)nc(N)c1Cl [Compound 138] | 20 | 35 | 0 | 0 | 0 | 0 | 0 | 0 | 60 | 70 | 0 | 0 | 0 | 20 | 0 | 0 | 0 | 0 | 0 | 0 | Plant response rating, Barnyardgrass [6, 7]: 0; Plant response rating, Barnyardgrass [6, 8]: 0; Plant response rating, Barnyardgrass [6, 9]: 0; Plant response rating, Barnyardgrass [6, 10]: 0
2 | CCCCOCCOC(=O)c1nc(C2CC2)nc(N)c1Cl [Compound 139] | 90 | 100 | 90 | 100 | 80 | 80 | 80 | 90 | 85 | 90 | 90 | 90 | 80 | 90 | 90 | 100 | 60 | 70 | 75 | 90 | Plant response rating, Barnyardgrass [6, 7]: 80; Plant response rating, Barnyardgrass [6, 8]: 90; Plant response rating, Barnyardgrass [6, 9]: 75; Plant response rating, Barnyardgrass [6, 10]: 90
3 | Nc1nc(C2CC2)nc(C(=O)OCC2CO2)c1Cl (stereo not drawn) [Compound 140] | 90 | 100 | 90 | 95 | 85 | 90 | 40 | 85 | 90 | 90 | 90 | 95 | 85 | 90 | 90 | 95 | 65 | 80 | 70 | 90 | Plant response rating, Barnyardgrass [6, 7]: 70; Plant response rating, Barnyardgrass [6, 8]: 90; Plant response rating, Barnyardgrass [6, 9]: 70; Plant response rating, Barnyardgrass [6, 10]: 90
4 | COCCOCCOC(=O)c1nc(C2CC2)nc(N)c1Cl [Compound 141] | 90 | 100 | 80 | 85 | 40 | 85 | 5 | 85 | 85 | 100 | 80 | 85 | 90 | 90 | 85 | 95 | 25 | 80 | 60 | 85 | Plant response rating, Barnyardgrass [6, 7]: 80; Plant response rating, Barnyardgrass [6, 8]: 90; Plant response rating, Barnyardgrass [6, 9]: 35; Plant response rating, Barnyardgrass [6, 10]: 75
5 | Nc1nc(C2CC2)nc(C(=O)OCCCOC(=O)c2nc(C3CC3)nc(N)c2Cl)c1Cl [Compound 142] | 85 | 90 | 70 | 90 | 30 | 45 | 25 | 65 | 80 | 90 | 85 | 85 | 90 | 90 | 85 | 95 | 15 | 25 | 45 | 85 | Plant response rating, Barnyardgrass [6, 7]: 45; Plant response rating, Barnyardgrass [6, 8]: 75; Plant response rating, Barnyardgrass [6, 9]: 50; Plant response rating, Barnyardgrass [6, 10]: 75
6 | Nc1nc(C2CC2)nc(C(=O)OCCCO)c1Cl [Compound 143] | 70 | 90 | 65 | 95 | 25 | 80 | 35 | 75 | 75 | 95 | 90 | 95 | 90 | 90 | 90 | 100 | 5 | 60 | 70 | 95 | Plant response rating, Barnyardgrass [6, 7]: 55; Plant response rating, Barnyardgrass [6, 8]: 75; Plant response rating, Barnyardgrass [6, 9]: 65; Plant response rating, Barnyardgrass [6, 10]: 85
7 | CC(C)N.Nc1nc(C2CC2)nc(C(=O)O)c1Cl [Compound 144] | 85 | 100 | 75 | 85 | 70 | 80 | 35 | 80 | 95 | 100 | 75 | 85 | 85 | 95 | 85 | 95 | 40 | 80 | 75 | 95 | Plant response rating, Barnyardgrass [6, 7]: 60; Plant response rating, Barnyardgrass [6, 8]: 90; Plant response rating, Barnyardgrass [6, 9]: 65; Plant response rating, Barnyardgrass [6, 10]: 80
8 | Nc1nc(C2CC2)nc(C(=O)Oc2ccc(Cl)cc2)c1Cl [Compound 145] | 80 | 90 | 65 | 85 | 20 | 70 | 0 | 60 | 75 | 95 | 70 | 85 | 80 | 95 | 75 | 100 | 5 | 30 | 65 | 80 | Plant response rating, Barnyardgrass [6, 7]: 30; Plant response rating, Barnyardgrass [6, 8]: 60; Plant response rating, Barnyardgrass [6, 9]: 30; Plant response rating, Barnyardgrass [6, 10]: 75
9 | CC(C)=NOC(=O)c1nc(C2CC2)nc(N)c1Cl [Compound 146] | 90 | 95 | 75 | 95 | 80 | 85 | 60 | 90 | 85 | 100 | 85 | 100 | 85 | 100 | 95 | 100 | 20 | 80 | 35 | 75 | Plant response rating, Barnyardgrass [6, 7]: 70; Plant response rating, Barnyardgrass [6, 8]: 90; Plant response rating, Barnyardgrass [6, 9]: 65; Plant response rating, Barnyardgrass [6, 10]: 90
